Patent US20260109694A1, “HETEROCYCLIC COMPOUNDS AND USES THEREOF” (Kumquat Biosciences Inc., priority 2023, published 2026)

Assays:
[1] = molecular target: T1, PTPN2 (Homo sapiens, UniProt P17706); assay: Phosphatase activity assay (DiFMUP substrate); format: biochemical; settings: value bin printed in column head
T1 sequence (P17706 1-415): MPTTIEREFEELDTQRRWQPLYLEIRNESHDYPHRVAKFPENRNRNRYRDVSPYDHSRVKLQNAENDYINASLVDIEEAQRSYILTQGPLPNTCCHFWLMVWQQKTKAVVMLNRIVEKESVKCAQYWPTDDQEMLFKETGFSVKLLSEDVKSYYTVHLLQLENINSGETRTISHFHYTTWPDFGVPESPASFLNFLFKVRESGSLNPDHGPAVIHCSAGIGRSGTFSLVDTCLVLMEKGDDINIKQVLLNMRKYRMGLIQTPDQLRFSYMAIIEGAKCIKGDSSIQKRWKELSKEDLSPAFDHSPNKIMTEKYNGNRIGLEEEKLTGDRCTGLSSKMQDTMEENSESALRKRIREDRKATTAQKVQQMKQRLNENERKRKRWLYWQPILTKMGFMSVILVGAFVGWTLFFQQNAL
Experimental: (§1) The selectivity and potency of a small molecule PTPN2 inhibitor as provided herein against one or more protein tyrosine phosphatase (PTP) enzymes, and specifically against PTPN2, is assessed in various ways. The one or more PTP enzymes comprise Mycobacterium protein tyrosine phosphatase A (mPTPA), Mycobacterium protein tyrosine phosphatase B (mPTPB), PTPN1 (i.e., PTP1B), PTPN2 (i.e., TC-PTP), PTPN22 (i.e., LYP), SHP-1, SHP-2, FAP-1, Meg2, HePTP, Laforin, VHX, VHR, LMWPTP, Cdc14A, LAR, CD45, PTPRG, a fragment thereof, a variant thereof, and a combination thereof. Selectivity and potency of a small molecule PTPN2 inhibitor is evaluated using a PTP activity inhibition assay. The assay is performed using a buffer comprising 50 mM HEPES buffer pH 7.5, 150 mM NaCl, 0.5 mM EDTA, 1 mM DTT, 0.001% Tween-20.
(§2) The assay is performed using a phosphated substrate, e.g., 10 mM 6,8-Difluoro-4-Methylumbelliferyl Phosphate (DIFMUP) that is stored at −20° C. Alternatively or in addition to, the assay is performed using other phosphated substrate (e.g., fluorescein diphosphate). Each PTP enzyme is diluted in the assay buffer
(§3) The assay can be carried out at room temperature in multiplate format, e.g., using 384 well plates. A small molecule PTPN2 inhibitor dissolved in DMSO at one of 10 concentrations from a serial dilution or DMSO alone for control is added to each well. A mixture of the assay buffer comprising PTP enzyme (e.g., 0.025 ng/ul PTPN2) is added to each well and mixed for approximately 2 minutes. The reaction is initiated by adding DiFMUP diluted in the assay buffer to a final concentration of approximately 45 µM DiFMUP in PTPN2 assay. For each PTP enzyme, DiFMUP is added at the Km (Michaelis constant) of the enzyme that had been independently determined. The phosphatase activity of the PTP enzyme is assessed by monitoring appearance of a fluorescent product (6,8-difluoro-7-hydroxyl-4-coumarin (DiFMU) from DiFMUP) continuously for about 15 to 30 minutes, using the INFINITE M1000Pro plate reader (Tecan) with excitation at 360 nm and emission at 450 nm (cutoff filter at 435 nm) for DiFMU. Each assay is performed at least in duplicate. The rate (e.g., the initial rate) of DiFMU formation is plotted against the concentration of the small molecule PTPN2 inhibitor, and the data is fitted (e.g., using a 4-parameter equation) to determine the inflection point of the fit as the IC50 of the small molecule PTPN2 inhibitor for a specific enzyme. Utilizing this assay, the ability of the compounds in Table 1 to inhibit PTPN2 and PTP1B has been assessed. Table 3 summarizes the IC50 values.

[2] = molecular target: T2, PTP1B (Homo sapiens, UniProt P18031); assay: Phosphatase activity assay (DiFMUP substrate); format: biochemical; settings: value bin printed in column head
T2 sequence (P18031 1-435): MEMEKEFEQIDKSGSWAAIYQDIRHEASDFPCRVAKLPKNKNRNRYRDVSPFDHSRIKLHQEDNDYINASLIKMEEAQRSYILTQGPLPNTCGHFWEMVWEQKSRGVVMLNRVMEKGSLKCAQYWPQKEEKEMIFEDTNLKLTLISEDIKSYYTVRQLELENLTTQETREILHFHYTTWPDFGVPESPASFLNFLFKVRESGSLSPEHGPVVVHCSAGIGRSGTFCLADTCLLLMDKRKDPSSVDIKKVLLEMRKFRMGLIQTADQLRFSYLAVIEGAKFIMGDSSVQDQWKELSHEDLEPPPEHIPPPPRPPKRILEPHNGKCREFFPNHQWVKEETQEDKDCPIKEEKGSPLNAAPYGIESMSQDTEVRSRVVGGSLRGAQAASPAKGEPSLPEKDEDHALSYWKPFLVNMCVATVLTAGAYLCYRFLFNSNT
Experimental: as §1, §2, §3

IC50 [1]	IC50 [2]	SMILES
≤ 1 µM	≤ 1 µM	N#CCC1C=C(c2ccc(O)c(N3CC(=O)NS3(=O)=O)c2F)CN1 (centres unmarked) [Compound 107, 2-(4-(3-(1,1-dioxido-4-oxo-1,2,5-thiadiazolidin-2-yl)-2-fluoro-4-hydroxyphenyl)-2,5-dihydro-1H-pyrrol-2-yl)acetonitrile]
≤ 1 µM	≤ 1 µM	O=C1CN(c2c(O)cc(CC3CCNC3)cc2F)S(=O)(=O)N1 (centres unmarked) [Compound 140, 5-(2-fluoro-6-hydroxy-4-(pyrrolidin-3-ylmethyl)phenyl)-1,2,5-thiadiazolidin-3-one 1,1-dioxide]
≤ 1 µM	≤ 1 µM	O=C1CN(c2c(O)ccc(CC3CNC3)c2F)S(=O)(=O)N1 [Compound 103, 5-(3-(azetidin-3-ylmethyl)-2-fluoro-6-hydroxyphenyl)-1,2,5-thiadiazolidin-3-one 1,1-dioxide]
≤ 1 µM	≤ 1 µM	CCC[C@@H]1C=C(c2ccc(O)c(N3CC(=O)NS3(=O)=O)c2F)CN1 [Compound 114, (R)-5-(2-fluoro-6-hydroxy-3-(5-propyl-2,5-dihydro-1H-pyrrol-3-yl)phenyl)-1,2,5-thiadiazolidin-3-one 1,1-dioxide]
≤ 1 µM	≤ 1 µM	CC(C)CC[C@H]1C=C(c2ccc(O)c(N3CC(=O)NS3(=O)=O)c2F)CN1C(=O)OC(OC(=O)[C@H](N)C(C)C)C(C)C (stereo partly drawn) [Compound 146, 1-((D-valyl)oxy)-2-methylpropyl (2S)-4-(3-(1,1-dioxido-4-oxo-1,2,5-thiadiazolidin-2-yl)-2-fluoro-4-hydroxyphenyl)-2-isopentyl-2,5-dihydro-1H-pyrrole-1-carboxylate]
≤ 1 µM	≤ 1 µM	O=C1CN(c2c(O)ccc(C3=CC(CO)CC3)c2F)S(=O)(=O)N1 (centres unmarked) [Compound 131, 5-(2-fluoro-6-hydroxy-3-(3-(hydroxymethyl)cyclopent-1-en-1-yl)phenyl)-1,2,5-thiadiazolidin-3-one 1,1-dioxide]
≤ 1 µM	≤ 1 µM	CC(C)(C)CC[C@H]1C=C(c2ccc(O)c(N3CC(=O)NS3(=O)=O)c2F)CN1 [Compound 120, (S)-5-(3-(5-(3,3-dimethylbutyl)-2,5-dihydro-1H-pyrrol-3-yl)-2-fluoro-6-hydroxyphenyl)-1,2,5-thiadiazolidin-3-one 1,1-dioxide]
> 1 µM	> 1 µM	NC1CCCC1c1ccc(O)c(N2CC(=O)NS2(=O)=O)c1F (centres unmarked) [Compound 112, 5-(3-(2-aminocyclopentyl)-2-fluoro-6-hydroxyphenyl)-1,2,5-thiadiazolidin-3-one 1,1-dioxide]
> 1 µM	> 1 µM	O=C1CN(c2c(O)ccc(C(=O)NC3CNC3)c2F)S(=O)(=O)N1 [Compound 124, N-(azetidin-3-yl)-3-(1,1-dioxido-4-oxo-1,2,5-thiadiazolidin-2-yl)-2-fluoro-4-hydroxybenzamide]
≤ 1 µM	≤ 1 µM	O=C1CN(c2c(O)ccc(CC3CCCNC3)c2F)S(=O)(=O)N1 (centres unmarked) [Compound 122, 5-(2-fluoro-6-hydroxy-3-(piperidin-3-ylmethyl)phenyl)-1,2,5-thiadiazolidin-3-one 1,1-dioxide]
≤ 1 µM	≤ 1 µM	O=C1CN(c2c(O)ccc(C3=C[C@@H](CCC4CC4)NC3)c2F)S(=O)(=O)N1 [Compound 113, (R)-5-(3-(5-(2-cyclopropylethyl)-2,5-dihydro-1H-pyrrol-3-yl)-2-fluoro-6-hydroxyphenyl)-1,2,5-thiadiazolidin-3-one 1,1-dioxide]
≤ 1 µM	≤ 1 µM	CC(C)C(=O)O[C@H](C)OC(=O)N1CC(c2ccc(O)c(N3CC(=O)NS3(=O)=O)c2F)=C[C@H]1CCC1CC1 [Compound 161, (S)-1-(isobutyryloxy)ethyl (R)-2-(2-cyclopropylethyl)-4-(3-(1,1-dioxido-4-oxo-1,2,5-thiadiazolidin-2-yl)-2-fluoro-4-hydroxyphenyl)-2,5-dihydro-1H-pyrrole-1-carboxylate]
≤ 1 µM	≤ 1 µM	O=C1CN(c2c(O)ccc(C3=CC(CCC4CCC4)NC3)c2F)S(=O)(=O)N1 (racemic) [Compound 106, 5-(3-(5-(2-cyclobutylethyl)-2,5-dihydro-1H-pyrrol-3-yl)-2-fluoro-6-hydroxyphenyl)-1,2,5-thiadiazolidin-3-one 1,1-dioxide]
≤ 1 µM	≤ 1 µM	CC1(C)CC1CCC1C=C(c2ccc(O)c(N3CC(=O)NS3(=O)=O)c2F)CN1 (centres unmarked) [Compound 115, 5-(3-(5-(2-(2,2-dimethylcyclopropyl)ethyl)-2,5-dihydro-1H-pyrrol-3-yl)-2-fluoro-6-hydroxyphenyl)-1,2,5-thiadiazolidin-3-one 1,1-dioxide]
≤ 1 µM	≤ 1 µM	O=C1CN(c2c(O)ccc(C3=CC(CCC(F)(F)F)NC3)c2F)S(=O)(=O)N1 (centres unmarked) [Compound 133, 5-(2-fluoro-6-hydroxy-3-(5-(3,3,3-trifluoropropyl)-2,5-dihydro-1H-pyrrol-3-yl)phenyl)-1,2,5-thiadiazolidin-3-one 1,1-dioxide]
≤ 1 µM	≤ 1 µM	CC(C)CC[C@H]1C=C(c2ccc(O)c(N3CC(=O)NS3(=O)=O)c2F)CN1C(=O)OC(OC(=O)[C@@H](N)C(C)C)C(C)C (stereo partly drawn) [Compound 162, 1-((L-valyl)oxy)-2-methylpropyl (2S)-4-(3-(1,1-dioxido-4-oxo-1,2,5-thiadiazolidin-2-yl)-2-fluoro-4-hydroxyphenyl)-2-isopentyl-2,5-dihydro-1H-pyrrole-1-carboxylate]
≤ 1 µM	≤ 1 µM	CC(C)CC[C@H]1C=C(c2ccc(O)c(N3CC(=O)NS3(=O)=O)c2F)CN1C(=O)O[C@@H](C)OC(=O)C(C)C [Compound 154, (S)-1-(isobutyryloxy)ethyl (S)-4-(3-(1,1-dioxido-4-oxo-1,2,5-thiadiazolidin-2-yl)-2-fluoro-4-hydroxyphenyl)-2-isopentyl-2,5-dihydro-1H-pyrrole-1-carboxylate]
≤ 1 µM	≤ 1 µM	O=C1CN(c2c(O)ccc(C3=C[C@@H](C=CC4CC4)NC3)c2F)S(=O)(=O)N1 (single isomer, unassigned) [Compound 102, (R,E)-5-(3-(5-(2-cyclopropylvinyl)-2,5-dihydro-1H-pyrrol-3-yl)-2-fluoro-6-hydroxyphenyl)-1,2,5-thiadiazolidin-3-one 1,1-dioxide or (R,Z)-5-(3-(5-(2-cyclopropylvinyl)-2,5-dihydro-1H-pyrrol-3-yl)-2-fluoro-6-hydroxyphenyl)-1,2,5-thiadiazolidin-3-one 1,1-dioxide]
≤ 1 µM	> 1 µM	CC1(C2C=C(c3ccc(O)c(N4CC(=O)NS4(=O)=O)c3F)CN2)CC1 (centres unmarked) [Compound 108, 5-(2-fluoro-6-hydroxy-3-(5-(1-methylcyclopropyl)-2,5-dihydro-1H-pyrrol-3-yl)phenyl)-1,2,5-thiadiazolidin-3-one 1,1-dioxide]
